Results: patent US5925627A, “Use of NK-1 receptor antagonists for treating movement disorders” (Merck Sharp & Dohme Ltd., priority 1996, dated 1999)
Like-named read-outs stand apart in the source and are kept apart here.

Experiments:
[1] = tested on: NK-1 receptor (foot tapping induced by NK-1 agonist GR73632); assay: Gerbil Foot-Tapping (Assay 2); assay type: in vivo, Mongolian gerbil; details: Meriones unguiculatus, iv
From the text: CNS-penetrant NK-1 receptor antagonists for use in the present invention can be identified by their ability to inhibit foot tapping in gerbils induced by anxiogenic agents (such as pentagastrin) or central infusion of NK-1 receptor agonists such as GR73632, or caused by aversive stimulation such as foot shock or single housing, based on the method of Rupniak & Williams, Eur. J. Pharmacol., 1994, 265, 179.
Male or female Mongolian gerbils (35-70 g) are anaesthetised by inhalation of an isoflurane/oxygen mixture to permit exposure of the jugular vein in order to permit administration of test compounds or vehicle in an injection volume of 5 ml/kg i.v. Alternatively, test compounds may be administered orally or by subcutaneous or intraperitoneal routes. A skin incision is then made in the midline of the scalp to expose the skull.

[2] = tested on: separation-induced vocalisations by guinea-pig pups; assay: animal or person; details: Cavia porcellus, po, 4 h, read-out: guinea-pig vocalisation (4 hr. pre-treatment): ID50
Experimental: Male and female guinea-pigs pups are housed in family groups with their mothers and littermates throughout the study. Experiments are commenced after weaning when the pups are 2 weeks old. Before entering an experiment, the pups are screened to ensure that a vigorous vocalisation response is reproducibly elicited following maternal separation. The pups are placed individually in an observation cage (55 cm×39 cm×19 cm) in a room physically isolated from the home cage for 15 minutes and the duration of vocalisation during this baseline period is recorded. […] On test days each pup receives an oral dose or an s.c. or i.p. injection of test compound or vehicle and is then immediately returned to the home cage with its mother and siblings for 30 to 60 minutes (or for up to 4 hours following an oral dose, dependent upon the oral pharmacokinetics of the test compound) before social isolation for 15 minutes as described above. […] Between 6 and 8 animals receive each test compound at each dose tested.

## C[C@@H](O[C@H]1OCCN(Cc2n[nH]c(=O)[nH]2)[C@H]1c1ccc(F)cc1)c1cc(C(F)(F)F)cc(C(F)(F)F)c1 [2-(R)-(1-(R)-(3,5-bis(trifluoromethyl)phenyl)-ethoxy)-3-(S)-(4-fluorophenyl)-4-(3-(5-oxo-1H, 4H-1,2,4-triazolo)methyl)-morpholine]
[1]; 5 min, i.v. immediately prior to GR73632 challenge, read-out: gerbil foot-tapping (5 mins.): ID50
  ED50: 0.36 mg/kg
[1]; 24 hrs., i.v. 24 hours prior to central NK1 agonist challenge, read-out: gerbil foot-tapping (24 hrs.): ID50
  ED50: 0.33 mg/kg
[2]
  ED50: 0.73 mg/kg
